Where two headings read alike, the source gives them in different places.
Assay: Plasma pharmacokinetics, chronic study (150 mg/Kg single vs daily for 2 weeks)
Format: in vivo, CD1 female mice
Conditions: for AUC(0-t): plasma, po, 150 mg/kg; for relative percent amount of metabolite versus 4-HPR in plasma: after single and repeated treatment
Experimental: The experiments were performed in CD1 female mice, 7 weeks of age, (body weight 25 ± 2 g) obtained from Envigo RMS SrL (Udine, Italy). They were maintained under specific-pathogen-free conditions with constant temperature and humidity, according to institutional guidelines regularly checked by a certified veterinarian. Animal experimentation was conducted in conformance with the following laws, regulations, and policies governing the care and use of laboratory animals: Italian Governing Law (D. l. 26/2014; Authorization n.19/2008-A issued March 6, 2008 by the Ministry of Health). Mario Negri Institutional Regulations and Policies providing internal authorizations for persons conducting animal experiments (Quality Management System Certificate –UNI EN ISO 9001:2008 – Reg. N 86121). The experimental protocol was reviewed by the Mario Negri Institute Ethical Committee and approved by the Italian Ministry of Health (Aut. Min. No 489/2016-Pr).
The pharmacokinetics of oral Bio-nFeR was investigated in comparison to that of the reference formulation NCI-FeR, after single administration of multiple doses and after chronic administrations, daily for 2 weeks or bi-daily for 1 week. Bio-nFeR was reconstituted at 20 mg/mL fenretinide to allow the administration of 200 mg/Kg fenretinide that corresponded to the highest dose. The doses of 100, 50 and 10 mg/Kg were administered by using serial dilution of the 20 mg/mL solution.
NCI-FeR prepared, as per the NCI instructions, at 11.6% w:w fenretinide:internal capsule components, was diluted with corn oil to obtain the treatment solutions at the concentrations of 20, 15 and 10 mg/mL, corresponding to the administered doses of 200, 150 and 100 mg/Kg respectively.
The oral pharmacokinetics of Bio-nFeR were investigated in four independent groups of 24 mice, randomized to receive different treatment with the following fenretinide equivalent doses: 10, 50, 100 and 200 mg/Kg. The drug was administered by oral gavage and after treatment, blood samples were taken at 15 and 30 min and at 1, 2, 4, 8/10, 24 and 48 h and collected in heparinized tubes from the retro-orbital plexus of the mice under isoflurane anesthesia. Mice were then sacrificed by cervical dislocation and liver, kidney and brain were removed and immediately frozen in dry-ice for future determination. To obtain plasma, blood was centrifuged at 4000 rpm for 10 min at 4 °C. To evaluate fenretinide and metabolites excretion, urine and faeces were collected over a 0–24 h and 24–48 h periods. The collection was performed in three mice per group of treatment, individually housed into metabolic cages for urine and faeces collection. All the biological samples were stored at − 20 °C until analysis. To compare the absorption of Bio-nFeR to NCI-FeR and to study the bioavailability, another independent groups of 24 mice were randomized to receive an oral dose of 200 mg/Kg of NCI-FeR. Blood samples were taken at the time reported above. Twenty-four hours fractions of urine and faeces were collected in three mice per group of treatment. Plasma and the other biological specimens were stored at − 20 °C until analysis. Chronic study: the oral pharmacokinetic of Bio-nFeR in comparison with NCI-FeR were also investigated after chronic administrations. Mice were divided in three independent groups, randomized to receive a single treatment of 150 mg/Kg or different repeated treatments of 150 mg/Kg, daily for 2 weeks (12 days on and 2 days off), or 100 mg/Kg bi-daily for 1 week (5 days on 2 days off). Bio-nFeR and NCI-FeR were administered by oral gavage, collecting blood samples at 0.5, 1, 2, 4, 8/10 and 24 h, the day of the single treatment and at 0, 1, 2, 4, 8/10, 24 and 48 h after the last dose of both the chronic treatments. The procedures of blood collection, plasma preparation, sacrifice of mice and storing of samples were as reported in acute study. […]

[1] = female, CD1, mouse, plasma analyte, oral Bio-nFeR 150 mg/kg daily, 2 week
[2] = female, CD1, mouse, plasma analyte, oral Bio-nFeR 150 mg/kg, Day 1
[3] = plasma analyte, oral Bio-nFeR 150 mg/kg daily, 2 week
[4] = plasma analyte, oral Bio-nFeR 150 mg/kg, Day 1

Row | AUC(0-t) [1] [ng·h/mL] | AUC(0-t) [2] [ng·h/mL] | Cmax at 2 weeks [1] [ng/mL] | Tmax at 2 weeks [1] [h] | Cmax [2] [ng/mL] | Tmax (female, CD1, mouse, plasma analyte, oral Bio-nFeR 150 mg/kg, Day 1, read-out: Tmax) [h] | HL [3] [h] | HL [4] [h] | relative percent amount of metabolite versus 4-HPR in plasma | AUC 0-last [3] [ng·h/mL] | Cmax ±SD [3] [ng/mL] | Tmax [3] [h] | AUC 0-last [4] [ng·h/mL] | Cmax ±SD [4] [ng/mL] | Tmax [4] [h] | Structure (SMILES)
1 | 85100 | 56900 | 6810 | 4 | 6350 | 20 | 5.7 | 5.3 |  |  |  |  |  |  |  | CC1=C(/C=C/C(C)=C/C=C/C(C)=C/C(=O)Nc2ccc(O)cc2)C(C)(C)CCC1 [4-HPR, 4-hydroxy (phenyl)retinamide, reference compound]
2 |  |  |  |  |  |  | 4.7 | 3.9 | about 50% | 54434.2 | 4282.6 | 4 | 33726.1 | 2979.4 |  | CC1=C(/C=C/C(C)=C/C=C/C(C)=C/C(=O)Nc2ccc(O)cc2)C(C)(C)CCC1=O [4-oxo-4-HPR]
3 |  |  |  |  |  |  | 11.2 | 8.6 | ~15% | 22086.1 | 1147.9 | 4 | 10435.4 | 798.0 | 4 | COc1ccc(NC(=O)\C=C(C)/C=C/C=C(C)\C=C\C2=C(C)CCCC2(C)C)cc1 [MPR]

From PMC6706930, “A novel oral micellar fenretinide formulation with enhanced bioavailability and antitumour activity against multiple tumours from cancer stem cells” (Journal of Experimental & Clinical Cancer Research : CR, 2019)
